ChEMBL document CHEMBL1127006, “QSAR study of benzoquinolinones as inhibitors of human type 1 5--reductase” (Bioorg Med Chem Lett, 1993)

What follows are compounds tested against T1, 3-oxo-5-alpha-steroid 4-dehydrogenase 1 (Homo sapiens, UniProt P18405) (assay: In vitro inhibitory concentration required to inhibit Steroid 5-alpha-reductase type 1 in cultured Hs 68 human foreskin fibroblast cells). Conditions: read-out: Log 1/IC50 (converted).
T1 sequence (P18405 whole entry): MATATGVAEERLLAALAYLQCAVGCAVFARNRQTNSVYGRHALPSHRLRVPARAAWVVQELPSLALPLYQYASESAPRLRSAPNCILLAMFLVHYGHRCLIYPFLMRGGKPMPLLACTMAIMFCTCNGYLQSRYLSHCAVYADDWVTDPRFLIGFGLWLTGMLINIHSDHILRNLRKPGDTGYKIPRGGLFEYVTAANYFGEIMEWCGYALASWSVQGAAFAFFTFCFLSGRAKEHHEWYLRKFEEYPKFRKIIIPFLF
Assay type: cell-based

SMILES	IC50 [nM]
Cc1ccc2c(c1)CCC1C2CCC(=O)N1C (stereo unspecified)	32.4
CN1C(=O)CCC2(C)c3ccc(F)cc3CCC12 (stereo unspecified)	115
CN1C(=O)CCC2=C1CCc1cc(F)ccc12	151
CN1C(=O)CCC2=C1CCc1ccccc12	1000
COc1ccc2c(c1)CCC1C2CCC(=O)N1C (stereo unspecified)	115
CN1C(=O)CCC2=C1CCc1cc(Cl)ccc12	174
CN1C(=O)CCC2=C1CCc1cc(Br)ccc12	60.3
CN1C(=O)CCC2c3ccccc3CCC21 (stereo unspecified)	562
CN1C(=O)CCC2(C)c3ccccc3CCC12 (stereo unspecified)	1000
CN1C(=O)CCC2c3ccc(F)cc3CCC21 (stereo unspecified)	34.7
CN1C(=O)CCC2c3ccc(Br)cc3CCC21 (stereo unspecified)	34.7
CN1C(=O)CCC2c3ccc(Cl)cc3CCC21 (stereo unspecified)	7.94
CN1C(=O)CCC2(C)c3ccc(Cl)cc3CCC12 (stereo unspecified)	32.4
Cc1ccc2c(c1)CCC1=C2CCC(=O)N1C	32.4
CN1C(=O)CCC2c3ccc(C(F)(F)F)cc3CCC21 (stereo unspecified)	89.1
CN1C(=O)CCC2c3ccc(I)cc3CCC21 (stereo unspecified)	79.4
